Data: patent US20240368173A1, “TRICYCLIC GPR65 MODULATORS” (PATHIOS THERAPEUTICS LIMITED, priority 2021, published 2024)

biological target: human recombinant GPR65 (Homo sapiens, UniProt Q8IYL9); assay: Human GPR65 cAMP HTRF antagonist assay; type: cell-based
Summary of the method: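 Antagonism measured as suppression of the cAMP rise when pH is dropped to 7.2 (control wells pH 7.9) in 1321N1 cells stably carrying human GPR65. Cells in KRH with 1 mM IBMX and 200 μM EDTA saw compound 30 min, then acid stimulation 30 min; HTRF cAMP detection, normalised, 4-parameter logistic IC50.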

Sequence of human recombinant GPR65 (Q8IYL9 whole entry): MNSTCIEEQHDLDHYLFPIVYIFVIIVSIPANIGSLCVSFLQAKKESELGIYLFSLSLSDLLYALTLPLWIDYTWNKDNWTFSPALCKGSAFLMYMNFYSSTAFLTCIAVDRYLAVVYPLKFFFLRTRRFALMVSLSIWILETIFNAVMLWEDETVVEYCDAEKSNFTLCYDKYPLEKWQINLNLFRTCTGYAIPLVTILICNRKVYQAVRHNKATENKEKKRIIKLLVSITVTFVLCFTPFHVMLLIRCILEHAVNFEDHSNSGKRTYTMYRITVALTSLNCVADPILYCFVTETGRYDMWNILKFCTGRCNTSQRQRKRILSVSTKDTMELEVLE

SMILES	IC50
O=C(Nc1cc(Cl)c(-c2cncc(C(F)F)c2)cc1F)N1[C@H]2CC[C@@H]1c1n[nH]c(=O)cc1C2 [Compound 333, (6S,9R)-N-(5-Chloro-4-(5-(difluoromethyl)pyridin-3-yl)-2-fluorophenyl)-3-oxo-3,5,6,7,8,9-hexahydro-2H-6,9-epiminocyclohepta[c]pyridazine-10-carboxamide]	< 500 nM
O=C(Nc1cc(Cl)c(-c2ccc(OCC3CC3)nc2)cc1F)N1[C@H]2CC[C@@H]1c1c[nH]c(=O)cc1C2 [Compound 334, (6S,9R)-N-(5-Chloro-4-(6-(cyclopropylmethoxy)pyridin-3-yl)-2-fluorophenyl)-3-oxo-3,5,6,7,8,9-hexahydro-2H-6,9-epiminocyclohepta[c]pyridine-10-carboxamide]	< 500 nM
CC(C)COc1ccc(-c2cc(F)c(NC(=O)N3[C@H]4CC[C@@H]3c3c[nH]c(=O)cc3C4)cc2Cl)cn1 [Compound 335, (6S,9R)-N-(5-Chloro-2-fluoro-4-(6-isobutoxypyridin-3-yl)phenyl)-3-oxo-3,5,6,7,8,9-hexahydro-2H-6,9-epiminocyclohepta[c]pyridine-10-carboxamide]	< 500 nM
O=C(Nc1cc(Cl)c(-c2ccc(OC3CCCC3)nc2)cc1F)N1[C@H]2CC[C@@H]1c1n[nH]c(=O)cc1C2 [Compound 336, (6S,9R)-N-(5-Chloro-4-(6-(cyclopentyloxy)pyridin-3-yl)-2-fluorophenyl)-3-oxo-3,5,6,7,8,9-hexahydro-2H-6,9-epiminocyclohepta[c]pyridazine-10-carboxamide]	< 500 nM
CO[C@H]1CC[C@H](Oc2ccc(-c3cc(F)c(NC(=O)N4[C@H]5CC[C@@H]4c4n[nH]c(=O)cc4C5)cc3Cl)cn2)CC1 [Compound 337, (6S,9R)-N-(5-chloro-2-fluoro-4-(6-(((1r,4r)-4-methoxycyclohexyl)oxy)pyridin-3-yl)phenyl)-3-oxo-3,5,6,7,8,9-hexahydro-2H-6,9-epiminocyclohepta[c]pyridazine-10-carboxamide]	< 500 nM
O=C(Nc1cc(Cl)c(-c2ccc(OCC3CC3(F)F)nc2)cc1F)N1[C@H]2CC[C@@H]1c1n[nH]c(=O)cc1C2 (stereo partly drawn) [Compound 338, (6S,9R)-N-(5-Chloro-4-(6-((2,2-difluorocyclopropyl)methoxy)pyridin-3-yl)-2-fluorophenyl)-3-oxo-3,5,6,7,8,9-hexahydro-2H-6,9-epiminocyclohepta[c]pyridazine-10-carboxamide]	< 500 nM
O=C(Nc1cc(Cl)c(-c2ccc3nonc3c2)cn1)N1[C@H]2CC[C@@H]1c1ccnc(F)c1C2 [Compound 339, (5R,8S)-N-(5-(Benzo[c][1,2,5]oxadiazol-5-yl)-4-chloropyridin-2-yl)-1-fluoro-6,7,8,9-tetrahydro-5H-5,8-epiminocyclohepta[c]pyridine-10-carboxamide]	< 500 nM
O=C(Nc1cc(Cl)c(-c2ccc(N3CCOCC3)nc2)cc1F)N1[C@H]2CC[C@@H]1c1n[nH]c(=O)cc1C2 [Compound 340, (6S,9R)-N-(5-Chloro-2-fluoro-4-(6-morpholinopyridin-3-yl)phenyl)-3-oxo-3,5,6,7,8,9-hexahydro-2H-6,9-epiminocyclohepta[c]pyridazine-10-carboxamide]	< 500 nM
O=C(Nc1cc(Cl)c(-c2ccc(N3CCC3)nc2)cc1F)N1[C@H]2CC[C@@H]1c1n[nH]c(=O)cc1C2 [Compound 341, (6S,9R)-N-(4-(6-(Azetidin-1-yl)pyridin-3-yl)-5-chloro-2-fluorophenyl)-3-oxo-3,5,6,7,8,9-hexahydro-2H-6,9-epiminocyclohepta[c]pyridazine-10-carboxamide]	< 500 nM
O=C(Nc1cc(Cl)c(-c2ccc(OC3CCOC3)nc2)cc1F)N1[C@H]2CC[C@@H]1c1n[nH]c(=O)cc1C2 (stereo partly drawn) [Compound 342, (6S,9R)-N-(5-Chloro-2-fluoro-4-(6-((tetrahydrofuran-3-yl)oxy)pyridin-3-yl)phenyl)-3-oxo-3,5,6,7,8,9-hexahydro-2H-6,9-epiminocyclohepta[c]pyridazine-10-carboxamide]	< 500 nM
CO[C@H]1CC[C@@H](Oc2ccc(-c3cc(F)c(NC(=O)N4[C@H]5CC[C@@H]4c4n[nH]c(=O)cc4C5)cc3Cl)cn2)CC1 [Compound 343, (6S,9R)-N-(5-Chloro-2-fluoro-4-(6-(((1s,4s)-4-methoxycyclohexyl)oxy)pyridin-3-yl)phenyl)-3-oxo-3,5,6,7,8,9-hexahydro-2H-6,9-epiminocyclohepta[c]pyridazine-10-carboxamide]	< 500 nM
